Where two headings read alike, the source gives them in different places.

For orientation: IC50 means the midpoint of a concentration-inhibition curve. What is called EC50 is the concentration needed to bring the measured effect to its halfway point.

For assay [1], the target named is T1, kappa opioid receptor (KOR) (Homo sapiens, UniProt P41145).
T1 construct: host or cells: CHO-K1
Kind of assay: cell-based. As to conditions: after activation with dynorphin B. The text has this:
KOR cAMP Antagonist Assay

Assay [2] concerns the target T2, mu opioid receptor (MOR) (Homo sapiens, UniProt P35372). The experiment in a line: MOR cAMP agonist assay.
Assay [3] has as its target T2, mu opioid receptor (MOR). The experiment in a line: MOR GTPγS agonist assay. The format is biochemical. The conditions noted are these: membranes of CHO cells over-expressing MOR; SPA beads; read-out: MOR GTPγS EC50. Also on record: host or cells: CHO-K1. The source says: Membranes obtained from the stable cell lines over-expressing MOR were subjected to GTPγS assay using SPA beads (Perkin Elmer, Cat #RPNQ0001).

Where [4] appears, read: kOR cAMP IC50, CHO-K1 cells expressing kOR.
The mark [5] stands for this setting: CHO-K1 cells expressing kOR, read-out: kOR cAMP IC50.

T2 sequence (P35372 whole entry): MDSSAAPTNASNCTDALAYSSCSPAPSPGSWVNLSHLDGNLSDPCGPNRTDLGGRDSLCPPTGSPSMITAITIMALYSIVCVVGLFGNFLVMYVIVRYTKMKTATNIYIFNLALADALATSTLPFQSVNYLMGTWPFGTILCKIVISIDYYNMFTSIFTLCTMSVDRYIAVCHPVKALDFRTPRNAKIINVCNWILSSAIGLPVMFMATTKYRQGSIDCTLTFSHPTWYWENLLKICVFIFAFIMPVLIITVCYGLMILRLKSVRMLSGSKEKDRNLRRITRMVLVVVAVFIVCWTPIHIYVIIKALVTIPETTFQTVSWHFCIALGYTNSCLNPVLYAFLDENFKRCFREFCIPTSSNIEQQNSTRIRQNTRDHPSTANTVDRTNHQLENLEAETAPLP
T1 sequence (P41145 whole entry): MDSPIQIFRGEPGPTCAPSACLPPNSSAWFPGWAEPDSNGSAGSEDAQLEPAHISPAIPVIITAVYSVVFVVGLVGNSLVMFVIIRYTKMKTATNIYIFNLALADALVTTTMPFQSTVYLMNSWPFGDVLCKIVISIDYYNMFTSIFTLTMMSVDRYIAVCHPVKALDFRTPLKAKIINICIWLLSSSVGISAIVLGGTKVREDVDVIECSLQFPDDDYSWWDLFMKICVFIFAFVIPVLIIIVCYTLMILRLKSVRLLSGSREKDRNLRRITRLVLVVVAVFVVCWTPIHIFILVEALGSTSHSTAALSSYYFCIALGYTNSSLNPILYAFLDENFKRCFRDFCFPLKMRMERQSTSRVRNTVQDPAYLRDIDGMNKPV

Take `C[C@H](NC(=O)NC[C@H](Cc1ccc(C(N)=O)cc1)N(C)C)c1ccccc1` [Compound A-1, 4-((S)-2-(dimethylamino)-3-(3-((S)-1-phenylethyl)ureido)propyl) benzamide]: the IC50 in assay [1] (setting [4]) is 100 to 1000 nM. At mu opioid receptor (MOR) [2], this compound registered an EC50 greater than 1000 nM.
Consider `C[C@H](OC(=O)NC[C@@H](N)Cc1ccc(C(N)=O)cc1)c1ccccc1` [Compound A-2, (S)-1-phenylethyl ((S)-2-amino-3-(4-carbamoylphenyl)propyl)carbamate], for which, in assay [1] (setting [5]), the IC50 was greater than 1000 nM. In addition, the EC50 at mu opioid receptor (MOR) [2] was greater than 1000 nM.
In assay [1] (setting [4]), `C[C@H](OC(=O)NC[C@H](Cc1ccc(C(N)=O)cc1)N(C)C)c1ccccc1` [Compound A-3, (S)-1-phenylethyl ((S)-3-(4-carbamoylphenyl)-2-(dimethylamino)propyl) carbamate] registered an IC50 greater than 1000 nM. On mu opioid receptor (MOR) [2], this compound came in with an EC50 of less than 100 nM.
Take `CN(C)[C@H](CNC(=O)N[C@H](c1ccccc1)C1CC1)Cc1ccc(C(N)=O)cc1` [Compound A-4, 4-((S)-3-(3-((S)-cyclopropyl(phenyl)methyl)ureido)-2-(dimethylamino)propyl)benzamide]: in assay [1] (setting [4]), the IC50 was less than 100 nM. The compound further displayed an EC50 at mu opioid receptor (MOR) [2] of less than 100 nM.
In assay [1] (setting [4]), `Cc1cc(C(N)=O)cc(C)c1C[C@H](N)CNC(=O)O[C@@H](C)c1ccccc1` [Compound A-5, (S)-1-phenylethyl ((S)-2-amino-3-(4-carbamoyl-2,6-dimethylphenyl)propyl)carbamate] registered an IC50 of less than 100 nM. Besides, at mu opioid receptor (MOR) [2], the EC50 was in the range of 100 to 1000 nM.
Regarding `Cc1cc(C(N)=O)cc(C)c1C[C@H](N)CNC(=O)N[C@H](c1ccccc1)C1CC1` [Compound A-6, 4-((S)-2-amino-3-(3-((S)-cyclopropyl(phenyl)methyl)ureido)propyl)-3,5-dimethylbenzamide], the IC50 in assay [1] (setting [4]) was in the range of 100 to 1000 nM. Further, the EC50 on mu opioid receptor (MOR) [2] fell in the range of 100 to 1000 nM.
As for `Cc1cc(C(N)=O)cc(C)c1C[C@@H](CNC(=O)O[C@@H](C)c1ccccc1)N(C)C` [Compound A-7, (S)-1-phenylethyl ((S)-3-(4-carbamoyl-2,6-dimethylphenyl)-2-(dimethylamino)propyl)carbamate], the IC50 in assay [1] (setting [4]) is 100 to 1000 nM. Moreover, the EC50 at mu opioid receptor (MOR) [2] was greater than 1000 nM.
Turning to `Cc1cc(C(N)=O)cc(C)c1C[C@@H](CNC(=O)C[C@H](C)c1ccccc1)N(C)C` [Compound A-8, 4-((S)-2-(dimethylamino)-3-((S)-3-phenylbutanamido)propyl)-3,5-dimethylbenzamide], the IC50 in assay [1] (setting [5]) was greater than 1000 nM. The EC50 on mu opioid receptor (MOR) [2] was greater than 1000 nM.
For the compound `Cc1cc(C(N)=O)cc(C)c1C[C@@H](CNC(=O)N[C@H](c1ccccc1)C1CC1)N(C)C` [Compound A-9, 4-((S)-3-(3-((S)-cyclopropyl(phenyl)methyl)ureido)-2-(dimethylamino)propyl)-3,5-dimethylbenzamide], in assay [1] (setting [5]), the IC50 is greater than 1000 nM. On mu opioid receptor (MOR) [2], this compound gave an EC50 greater than 1000 nM.
The compound `C[C@H](CC(=O)NC[C@H](Cc1ccc(C(N)=O)cc1)N(C)C)c1ccccc1` [Compound A-10, 4-((S)-2-(dimethylamino)-3-((R)-3-phenylbutanamido)propyl)benzamide] had an IC50 in assay [1] (setting [4]) of 100 to 1000 nM.
Compound `Cc1cc(C(N)=O)cc(C)c1C[C@@H](CNC(=O)C[C@@H](C)c1ccccc1)N(C)C` [Compound A-11, 4-((S)-2-(dimethylamino)-3-((R)-3-phenylbutanamido)propyl)-3,5-dimethylbenzamide] gave an IC50 in assay [1] (setting [4]) of 100 to 1000 nM. The EC50 at mu opioid receptor (MOR) [2] was greater than 1000 nM.
In the case of `CN(C)[C@H](CNC(=O)[C@@H]1C[C@@]1(C)c1ccccc1)Cc1ccc(O)cc1Cl` [Compound B-1, (1R,2R)—N—((S)-3-(2-chloro-4-hydroxyphenyl)-2-(dimethylamino)propyl)-2-methyl-2-phenylcyclopropane-1-carboxamide], the IC50 in assay [1] (setting [4]) is less than 100 nM. This compound gave an EC50 at mu opioid receptor (MOR) [2] of less than 100 nM.
In assay [1] (setting [4]), `CNC(=O)c1ccc(C[C@@H](CNC(=O)[C@@H]2C[C@@]2(C)c2ccccc2)N(C)C)cc1F` [Compound B-2, 4-((S)-2-(dimethylamino)-3-((1R,2R)-2-methyl-2-phenylcyclopropane-1-carboxamido)propyl)-2-fluoro-N-methylbenzamide] yielded an IC50 greater than 1000 nM. On mu opioid receptor (MOR) [2], this compound had an EC50 of less than 100 nM.
The compound `CN(C)[C@H](CNC(=O)[C@@H]1C[C@@]1(C)c1ccccc1)Cc1ccc(C(N)=O)cc1` [Compound B-3, 4-((S)-2-(dimethylamino)-3-((1R,2R)-2-methyl-2-phenylcyclopropane-1-carboxamido)propyl)benzamide] registered an IC50 in assay [1] (setting [4]) greater than 1000 nM. At mu opioid receptor (MOR) [2], this compound registered an EC50 of less than 100 nM.
For `CN(C)[C@H](CNC(=O)[C@H]1C[C@@]1(C)c1ccccc1)Cc1ccc(C(N)=O)cc1` [Compound B-4, 4-((S)-2-(dimethylamino)-3-((1S,2R)-2-methyl-2-phenylcyclopropane-1-carboxamido)propyl)benzamide], the IC50 in assay [1] (setting [4]) lay within 100 to 1000 nM. Moreover, the EC50 on mu opioid receptor (MOR) [2] was less than 100 nM.
With `CN(C)[C@H](CNC(=O)[C@@H]1C[C@]1(C)c1ccccc1)Cc1ccc(C(N)=O)cc1` [Compound B-5, 4-((S)-2-(dimethylamino)-3-((1R,2S)-2-methyl-2-phenylcyclopropane-1-carboxamido)propyl)benzamide], in assay [1] (setting [4]), the IC50 is less than 100 nM. The EC50 at mu opioid receptor (MOR) [2] is less than 100 nM.
Regarding `CN(C)[C@H](CNC(=O)[C@@H]1C[C@@]1(C)c1ccccc1)Cc1ccc(C(N)=O)cc1Cl` [Compound B-6, 3-chloro-4-((S)-2-(dimethylamino)-3-((1R,2R)-2-methyl-2-phenylcyclopropane-1-carboxamido)propyl)benzamide], the IC50 in assay [1] (setting [4]) was 100 to 1000 nM. For the same compound, on mu opioid receptor (MOR) [2], the EC50 was less than 100 nM.
Take `CN(C)[C@H](CNC(=O)[C@H]1C[C@@H]1c1ccccc1)Cc1ccc(O)cc1` [Compound B-18, (1S,2S)—N—((S)-2-(dimethylamino)-3-(4-hydroxyphenyl)propyl)-2-phenylcyclopropane-1-carboxamide]: the IC50 in assay [1] (setting [4]) was 100 to 1000 nM.
On to `CN(C)[C@H](CNC(=O)[C@@H]1C[C@]1(C)c1ccccc1)Cc1cc(F)c(O)c(Cl)c1` [Compound B-24, (1R,2S)—N—((S)-3-(3-chloro-5-fluoro-4-hydroxyphenyl)-2-(dimethylamino)propyl)-2-methyl-2-phenylcyclopropane-1-carboxamide], for which, in assay [1] (setting [4]), the IC50 was in the range of 100 to 1000 nM.
Turning to `CN(CC(F)(F)F)[C@H](CNC(=O)[C@@H]1C[C@]1(C)c1ccccc1)Cc1ccc(C(=O)NC2CC2)c(F)c1` [Compound B-29, N-cyclopropyl-2-fluoro-4-((S)-2-(methyl(2,2,2-trifluoroethyl)amino)-3-((1R,2S)-2-methyl-2-phenylcyclopropane-1-carboxamido)propyl)benzamide], on mu opioid receptor (MOR) [2], the EC50 was less than 100 nM.
In turn, `CN(CC1CC1)[C@H](CNC(=O)[C@@H]1C[C@]1(C)c1ccccc1)Cc1ccc2[nH]c(=O)oc2c1` [Compound B-32, (1R,2S)—N—((S)-2-((cyclopropylmethyl)(methyl)amino)-3-(2-oxo-2,3-dihydrobenzo[d]oxazol-6-yl)propyl)-2-methyl-2-phenylcyclopropane-1-carboxamide] had an EC50 on mu opioid receptor (MOR) [2] of 100 to 1000 nM.
As to `CCNC(=O)c1ccc(C[C@@H](CNC(=O)[C@@H]2C[C@]2(C)c2ccccc2)N(C)C)cc1F` [Compound B-34, 4-((S)-2-(dimethylamino)-3-((1R,2S)-2-methyl-2-phenylcyclopropane-1-carboxamido)propyl)-N-ethyl-2-fluorobenzamide], the EC50 at mu opioid receptor (MOR) [2] was less than 100 nM.
Take `CN(C)[C@H](CNC(=O)[C@@H]1C[C@@]1(C)c1ccccc1)Cc1ccc(O)cc1F` [Compound B-44, (1R,2R)—N—((S)-2-(dimethylamino)-3-(2-fluoro-4-hydroxyphenyl)propyl)-2-methyl-2-phenylcyclopropane-1-carboxamide]: in assay [1] (setting [4]), the IC50 was greater than 1000 nM.
Compound `CN1Cc2cc(O)ccc2C[C@H]1CNC(=O)[C@@H]1C[C@]1(C)c1ccccc1` [Compound B-50, (1R,2S)—N—(((S)-7-hydroxy-2-methyl-1,2,3,4-tetrahydroisoquinolin-3-yl)methyl)-2-methyl-2-phenylcyclopropane-1-carboxamide] registered an EC50 at mu opioid receptor (MOR) [2] of less than 100 nM.
`CN1Cc2cc(O)ccc2C[C@H]1CNC(=O)[C@@H]1C[C@@]1(C)c1ccccc1` [Compound B-51, (1R,2R)—N—(((S)-7-hydroxy-2-methyl-1,2,3,4-tetrahydroisoquinolin-3-yl)methyl)-2-methyl-2-phenylcyclopropane-1-carboxamide] had an EC50 on mu opioid receptor (MOR) [2] of less than 100 nM.
Compound `CN(C)[C@H](CNC(=O)[C@@H]1C[C@@]1(C)c1ccccc1)Cc1cc2cn[nH]c2cc1Cl` [Compound B-52, (1R,2R)—N—((S)-3-(6-chloro-2H-indazol-5-yl)-2-(dimethylamino)propyl)-2-methyl-2-phenylcyclopropane-1-carboxamide] yielded an EC50 at mu opioid receptor (MOR) [2] of less than 100 nM.
With `CN(C)[C@H](CNC(=O)[C@@H]1C[C@@]1(C)c1ccccc1)Cc1ccc2[nH]c(=O)oc2c1` [Compound B-53, (1R,2R)—N—((S)-2-(dimethylamino)-3-(2-oxo-2,3-dihydrobenzo[d]oxazol-6-yl)propyl)-2-methyl-2-phenylcyclopropane-1-carboxamide], at mu opioid receptor (MOR) [2], the EC50 was less than 100 nM.
On mu opioid receptor (MOR) [2], `CN(C)[C@H](CNC(=O)[C@@H]1C[C@@]1(C)c1ccccc1)Cc1ccc(O)c(Cl)c1` [Compound B-59, (1R,2R)—N—((S)-3-(3-chloro-4-hydroxyphenyl)-2-(dimethylamino)propyl)-2-methyl-2-phenylcyclopropane-1-carboxamide] had an EC50 of less than 100 nM.
Consider `CNC(=O)c1cc(C)c(C[C@@H](CNC(=O)c2ccccc2)N(C)C)c(C)c1` [Compound C-45], for which, on mu opioid receptor (MOR) [3], the EC50 is less than 100 nM. Moreover, in assay [1] (setting [4]), the IC50 was greater than 1000 nM.
For `Cc1ccc(C(=O)NC[C@H](Cc2ccc(C(N)=O)cc2)N(C)C)c(C)c1` [Compound C-67, (S)—N-(3-(4-carbamoylphenyl)-2-(dimethylamino)propyl)-2,4-dimethylbenzamide], the EC50 on mu opioid receptor (MOR) [3] is less than 100 nM. This compound also had an IC50 in assay [1] (setting [4]) greater than 1000 nM.

The record behind these values is patent US20210147343A1 (priority 2018, published 2021).
